US9884063B2, “Amido-substituted azole compounds” (Bayer Pharma Aktiengesellschaft, priority 2014, dated 2018)

Legend:
TNKS2 = molecular target: T1, TNKS2 (Homo sapiens, UniProt Q9H2K2); test: Modified TNKS2 Assay 2 (auto-parsylation, [3H]-NAD+ SPA); format: biochemical; conditions: 6 nM TNKS2, 96 well
T1 sequence (Q9H2K2 1-1166): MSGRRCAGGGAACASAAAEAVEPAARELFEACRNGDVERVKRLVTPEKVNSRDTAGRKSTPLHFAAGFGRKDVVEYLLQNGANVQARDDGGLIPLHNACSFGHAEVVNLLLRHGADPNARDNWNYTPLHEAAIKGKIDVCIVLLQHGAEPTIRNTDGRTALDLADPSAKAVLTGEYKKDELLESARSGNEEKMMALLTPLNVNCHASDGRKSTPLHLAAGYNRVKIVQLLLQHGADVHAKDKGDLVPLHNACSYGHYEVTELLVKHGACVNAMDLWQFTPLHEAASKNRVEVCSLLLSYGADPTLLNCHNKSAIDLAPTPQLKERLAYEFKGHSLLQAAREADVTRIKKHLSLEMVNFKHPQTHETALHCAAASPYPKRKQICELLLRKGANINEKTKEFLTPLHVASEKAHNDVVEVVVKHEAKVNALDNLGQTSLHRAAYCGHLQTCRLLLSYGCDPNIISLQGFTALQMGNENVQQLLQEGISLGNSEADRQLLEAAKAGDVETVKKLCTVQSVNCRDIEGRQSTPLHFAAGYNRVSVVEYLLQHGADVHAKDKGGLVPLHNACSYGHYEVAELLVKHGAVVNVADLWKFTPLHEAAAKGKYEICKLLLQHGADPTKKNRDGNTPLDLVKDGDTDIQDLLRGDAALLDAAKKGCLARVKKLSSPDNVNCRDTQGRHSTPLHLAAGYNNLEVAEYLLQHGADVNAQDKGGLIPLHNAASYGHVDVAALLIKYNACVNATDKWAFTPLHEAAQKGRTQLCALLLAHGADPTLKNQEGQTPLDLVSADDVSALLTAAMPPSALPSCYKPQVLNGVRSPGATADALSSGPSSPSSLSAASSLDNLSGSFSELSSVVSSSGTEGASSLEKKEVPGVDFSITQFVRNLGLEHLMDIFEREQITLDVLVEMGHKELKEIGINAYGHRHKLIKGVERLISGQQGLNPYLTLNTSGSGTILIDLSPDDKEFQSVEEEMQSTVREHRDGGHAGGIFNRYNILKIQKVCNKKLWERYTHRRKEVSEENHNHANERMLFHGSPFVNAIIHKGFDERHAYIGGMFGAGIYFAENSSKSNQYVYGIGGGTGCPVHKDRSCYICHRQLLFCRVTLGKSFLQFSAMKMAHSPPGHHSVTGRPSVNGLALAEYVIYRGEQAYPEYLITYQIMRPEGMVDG
Method: The potency of selected compounds according to the invention was assessed applying an modified in vitro inhibition assay. Here, the TNKS2 catalyzed NAD^+-dependent ribosylation of the enzyme itself (auto-parsylation) was detected using [^3H]-NAD^+ as substrate and applying the scintillation proximity assay (SPA) method to detect tritium-labeled, parsylated TNKS2. The intensity of the readout signal is proportional to the incorporated [^3H]-NAD^+. Inhibition of TNKS2 leads to a decreased incorporation of [^3H]-NAD^+ and consequently to a lower readout signal intensity. The concentration of a test compound which inhibits the enzyme activity by 50% (corresponds to half of the normed readout signal intensity) is reported as IC50.
The assay was conducted in a 96 well MTP format with the identical TNKS2 enzyme sample and NAD^+ sample as in the histone ribosylation assay with the following modifications: TNKS2 enzyme sample was diluted with a modified assay buffer (50 mM MES pH 7.0, 1 mM DTT, 0.01% Triton X-100) to a final concentration of 6 nM TNKS2 and 10×NAD^+ solution was diluted with the modified assay buffer (s. above) to a final 0.445×NAD^+ solution doped with 100 Bq/ul [^3H]-NAD^+ [Catalog #NET443H050UC, Perkin Elmer, Waltham, Mass., USA]. Substrate solution (10 ul) was incubated with different test compound concentrations (2.5 ul in 10% DMSO in modified assay buffer) or control (2.5 ul 10% DMSO in modified assay buffer only) and enzyme (10 ul) over night at room temperature. Incorporated tritium was measured after addition of 50 ul SPA beads (1 mg/ml) [Catalog #RPNQ0095 20 mg/ml, Perkin Elmer, Waltham, Mass., USA; diluted 1:10 with Dulbecco's phosphate buffered saline, PBS Catalog #D8537, Sigma-Aldrich, Steinheim, Germany] and detection of the photon emission with a beta count plate reader [Wallac MicroBeta®, Perkin Elmer, Waltham, Mass., USA].

[1] = system: wildtype Wnt signaling cascade; test: HEK293 TOP Assay (Super TopFlash luciferase reporter, Wnt-3a stimulated); format: cell-based; conditions: Homo sapiens, HEK293, 16 h
Summary of the method: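 HEK293 cells stably carrying Super TopFlash (TOP) or FOP reporter, stimulated with recombinant human Wnt-3a (2500–5 ng/ml, two-fold steps). Both lines incubated in parallel with compound from 50 μM to 15 nM (3.16-fold) in CAFTY buffer pH 7.4 with 2 mM Ca2+ and 0.01% BSA; selectivity judged TOP vs FOP.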

[2] = HEK293 TOP reporter cell line, Wnt-3a at EC50, 16 hours incubation, compound dilution series 50 μM to 15 nM
[3] = HEK293 TOP reporter cells, Wnt3a at EC50, 16 hours, luciferase

| IC50 (TNKS2) [nM] | IC50 [1, 2] [nM] | IC50 [1, 3] [nM] | SMILES |
| --- | --- | --- | --- |
| 480 | 850 | – | CNC(=O)c1nc[nH]c1C(=O)Nc1ccc(NC(=O)c2cc(OC)ccc2Cl)cc1 [Example 248, N^5-{4-[(2-chloro-5-methoxybenzoyl)amino]phenyl}-N^4-methyl-1H-imidazole-4,5-dicarboxamide] |
| 60 | 340 | – | O=C(Nc1ccc(NC(=O)c2nc[nH]c2C(=O)NCCN2CCCC2)cc1)c1ccc(F)cc1 [Example 176, N^4-{4-[(4-fluorobenzoyl)amino]phenyl}-N^5-[2-(pyrrolidin-1-yl)ethyl]-1H-imidazole-4,5-dicarboxamide] |
| 530 | 280 | – | CNC(=O)c1nc[nH]c1C(=O)Nc1ccc(NC(=O)c2ccc(O)cc2Cl)cc1 [Example 122, N^5-{4-[(2-chloro-4-hydroxybenzoyl)amino]phenyl}-N^4-methyl-1H-imidazole-4,5-dicarboxamide] |
| 130 | 1030 | – | O=C(Nc1ccc(NC(=O)c2nc[nH]c2C(=O)NCCN2CCC2)cc1)c1ccc(F)cc1 [Example 199, N^5-[2-(azetidin-1-yl)ethyl]-N^4-{4-[(4-fluorobenzoyl)amino]phenyl}-1H-imidazole-4,5-dicarboxamide] |
| > 10000 | 11500 | – | CNC(=O)c1nc[nH]c1C(=O)Nc1ccc(NC(=O)c2ccccc2OC(F)(F)F)cc1 [Example 243, N^4-methyl-N^5-(4-{[2-(trifluoromethoxy)benzoyl]amino}phenyl)-1H-imidazole-4,5-dicarboxamide] |
| 180 | 230 | 230 | CNC(=O)c1nc[nH]c1C(=O)Nc1ccc(NC(=O)c2ccncc2Cl)cc1 [Example 6, N^5-{4-[(3-chloroisonicotinoyl)amino]phenyl}-N^4-methyl-1H-imidazole-4,5-dicarboxamide] |
| 90 | 170 | – | CNC(=O)c1nc[nH]c1C(=O)Nc1ccc(NC(=O)c2ccc(C)cc2Cl)cc1 [Example 244, N^5-{4-[(2-chloro-4-methylbenzoyl)amino]phenyl}-N^4-methyl-1H-imidazole-4,5-dicarboxamide] |
| > 10000 | 9200 | – | O=C(Nc1ccc(NC(=O)c2nc[nH]c2C(=O)NC2CC2)cc1)c1ccc(F)cc1 [Example 131, N^5-cyclopropyl-N^4-{4-[(4-fluorobenzoyl)amino]phenyl}-1H-imidazole-4,5-dicarboxamide] |
| 70 | 290 | – | CC(C)(CNC(=O)c1[nH]cnc1C(=O)Nc1ccc(NC(=O)c2ccccc2Cl)cc1)N1CCCCC1 [Example 165, N^4-{4-[(2-chlorobenzoyl)amino]phenyl}-N^5-[2-methyl-2-(piperidin-1-yl)propyl]-1H-imidazole-4,5-dicarboxamide] |
| 140 | 620 | – | CNC(=O)c1nc[nH]c1C(=O)Nc1ccc(NC(=O)c2c(F)cc(F)cc2Cl)cc1 [Example 118, N^5-{4-[(2-chloro-4,6-difluorobenzoyl)amino]phenyl}-N^4-methyl-1H-imidazole-4,5-dicarboxamide] |
| 580 | 870 | – | O=C(Nc1ccc(NC(=O)c2nc[nH]c2C(=O)NCCCN2CCOCC2)cc1)c1ccccc1Cl [Example 200, N^4-{4-[(2-chlorobenzoyl)amino]phenyl}-N^5-[3-(morpholin-4-yl)propyl]-1H-imidazole-4,5-dicarboxamide] |
| 60 | 140 | 150 | CNC(=O)c1nc[nH]c1C(=O)Nc1ccc(NC(=O)c2ccc(F)cc2Cl)cc1 [Example 12, N^5-{4-[(2-chloro-4-fluorobenzoyl)amino]phenyl}-N^4-methyl-1H-imidazole-4,5-dicarboxamide] |
| 50 | 820 | – | CC(C)(CN1CCCCC1)NC(=O)c1[nH]cnc1C(=O)Nc1ccc(NC(=O)c2ccc(F)cc2Cl)cc1 [Example 184, N^4-{4-[(2-chloro-4-fluorobenzoyl)amino]phenyl}-N^5-[2-methyl-1-(piperidin-1-yl)propan-2-yl]-1H-imidazole-4,5-dicarboxamide] |
| – | 5650 | 5650 | CCC(C)NC(=O)c1ncoc1C(=O)Nc1ccc(NC(=O)c2ccc(F)cc2Cl)cc1 (stereo not drawn) [Example 7, N^4-sec-butyl-N^5-{4-[(2-chloro-4-fluorobenzoyl)amino]phenyl}-1,3-oxazole-4,5-dicarboxamide] |
| – | 660 | 660 | CNC(=O)c1nc[nH]c1C(=O)Nc1ccc(NC(=O)c2c(C)cc(F)cc2C)cc1 [Example 23, N^5-{4-[(4-fluoro-2,6-dimethylbenzoyl)amino]phenyl}-N^4-methyl-1H-imidazole-4,5-dicarboxamide] |
| – | 1250 | 1250 | CC(C)NC(=O)c1ncoc1C(=O)Nc1ccc(NC(=O)c2ccc(F)cc2Cl)cc1 [Example 15, N^5-{4-[(2-chloro-4-fluorobenzoyl)amino]phenyl}-N^4-isopropyl-1,3-oxazole-4,5-dicarboxamide] |
| – | 4600 | 4600 | CC(NC(=O)c1ncoc1C(=O)Nc1ccc(NC(=O)c2ccc(F)cc2Cl)cc1)c1ccccc1 (stereo not drawn) [Example 8, N^5-{4-[(2-chloro-4-fluorobenzoyl)amino]phenyl}-N^4-(1-phenylethyl)-1,3-oxazole-4,5-dicarboxamide] |
| – | 3550 | 3550 | CNC(=O)c1nc[nH]c1C(=O)Nc1ccc(NC(=O)c2c(-c3ccccc3)nn(C)c2Cl)cc1 [Example 17, N^5-(4-{[(5-chloro-1-methyl-3-phenyl-1H-pyrazol-4-yl)carbonyl]amino}phenyl)-N^4-methyl-1H-imidazole-4,5-dicarboxamide] |
| – | 9700 | 9700 | CNC(=O)c1nc[nH]c1C(=O)Nc1ccc(NC(=O)c2ccc(N3CCCC3)cc2F)cc1 [Example 3, N^5-(4-{[2-fluoro-4-(pyrrolidin-1-yl)benzoyl]amino}phenyl)-N^4-methyl-1H-imidazole-4,5-dicarboxamide] |
| – | 460 | – | CNC(=O)c1[nH]cnc1C(=O)Nc1ccc(NC(=O)c2cc(Cl)sc2Cl)cc1 [Example 213, N^4-(4-{[(2,5-dichloro-3-thienyl)carbonyl]amino}phenyl)-N^5-methyl-1H-imidazole-4,5-dicarboxamide] |
| – | 410 | 340 | O=C(Nc1ccc(NC(=O)c2[nH]cnc2C(=O)NCc2ccccc2)cc1)c1ccc(F)cc1Cl [Example 18, N^4-benzyl-N^5-{4-[(2-chloro-4-fluorobenzoyl)amino]phenyl}-1H-imidazole-4,5-dicarboxamide] |
| – | 9350 | 11500 | COC(=O)c1ncoc1C(=O)Nc1ccc(NC(=O)c2ccc(F)cc2Cl)cc1 [Example 14, Methyl 5-({4-[(2-chloro-4-fluorobenzoyl)amino]phenyl}carbamoyl)-1,3-oxazole-4-carboxylate] |
